Data taken from PMC8179358, “An explicitly designed paratope of amyloid-β prevents neuronal apoptosis in vitro and hippocampal damage in rat brain” (Chemical Science, 2020).
*1 amine or outer side, *2 acyl side, *3 side chain or, on linkers, in order; H or OH if unused. Where a SMILES comes first, the peptide text is derived from it. Bridges are numbered along the chain shown (N, C = ends). Roman numbers before positions name the chains, in order. [ ]: non-standard residue; d: D form. X1 = O=C(CCCCC(=O)[*:2])NCCCOCCOCCOCCCNC(=O)CCC(=O)[*:1]; NMeF = CN[C@@H](Cc1ccccc1)C(=O)O; NMeL = CN[C@@H](CC(C)C)C(=O)O; NMeV = CN[C@H](C(=O)O)C(C)C

Key:
Bax, Bcl-2 = experiment: Western blot, Bax and Bcl-2; format: cell-based, human; details: Aβ40 alone (10 μM), compared to healthy cells
Method: e. Measurement of intracellular calcium (Ca 2+)
Ca2+sensitive dye Fura-2AM was used to measure free intracellular Ca2+level in SH-SY5Y cell suspension by the previously described method.12 Following treatment with the respective drug, Fura-2 AM (Cayman, USA) at a concentration of 5 µM was added to the culture medium and incubated at 37°C for 45 min. Next, Krebs-Ringer-HEPES (KRH) buffer (135mM NaCl, 5mM KCl, 1mM MgSO4, 0.4mM KH2PO4, 1mM CaCl2, 5.5mM glucose, 20mM HEPES, pH 7.4) was used to wash each plate twice containing (1×10^6cells). Fluorescent microplate reader (FLX 800, Biotek, USA) was used to measure the fluorescence intensity with an excitation and emission spectra of […], respectively. Results are Mean±SEM of quadruplicate measurements from three separate experiments and expressed in the increase in percent relative fluorescent unit (RFU) relative to the baseline reading.
Western blot analysis was performed to measure Bax, Bcl-2, cleaved Caspase 9 and cleaved Caspase 3, pro and anti-apoptotic proteins expression. About 5× 10^6 cells were washed with PBS twice following […]
overnight. […] The optical density (OD) value of each band was analyzed by the electrophoresis image analysis system (Smartview 2001, S/N: SV-0002202, Japan) and normalized against the corresponding β-actin band. […]

SH-SY5Y cells = experiment: MTT assay, self-toxicity of SP1; format: cell-based, human; details: 0.5-10 μM, 24 h
Method: 1.3. Methods for in vitro cell-based experiments
The human neuroblastoma cell line SH-SY5Y was obtained from the National Centre for Cell Science (NCCS, Pune, India). The cells were grown in DMEM, and Ham’s F12 nutrient mixture (DMEM/F12; 1:1) supplemented with 10% fetal bovine serum (FBS; Gibco, USA), 50 U/ml penicillin, 100 μg/ml streptomycin and incubated in a humidified atmosphere of 5% CO2 at 37°C. All experiments were carried […]
Each experiment was performed
Methylthiazol tetrazolium (MTT) reduction assay was used to measure the viability of cells.10 The SH-SY5Y cells were seeded at a density of 1.5 × 10^4 cells/well in a 96 well plate. To assess self-toxicity, cells […]
period 20µl of MTT reagent (5mg/ml in DPBS) was added to each well and incubated in a humidified atmosphere of 5% CO2 at 37°C for 4h. Formazan crystals (purple) are formed by the metabolically active cells by cleaving the yellow tetrazolium salt. After the incubation period, the MTT solution was aspirated, and 150µL of dimethyl sulfoxide (DMSO) was added to each well to dissolve the formazan precipitate.

Compound	ratio of Bax/Bcl-2 expression (Bax, Bcl-2) [fold]	cytotoxicity of SP1 alone (SH-SY5Y cells)
Aβ40: commercially available Aβ40 peptide	~3.2	
CC(C)C[C@H](NC(=O)CNC(=O)CCC(=O)NCCCOCCOCCOCCCNC(=O)CCCCC(=O)NCC(=O)N(C)[C@@H](CC(C)C)C(=O)N[C@H](C(=O)N(C)[C@@H](Cc1ccccc1)C(=O)N[C@@H](Cc1ccccc1)C(=O)N[C@@H](C)C(N)=O)C(C)C)C(=O)N(C)[C@H](C(=O)N[C@@H](Cc1ccccc1)C(=O)N(C)[C@@H](Cc1ccccc1)C(=O)N[C@@H](C)C(N)=O)C(C)C [SP1] (I: GL[NMeV]F[NMeF]A-NH2 / II: G[NMeL]V[NMeF]FA-NH2; linker I:N-II:N via X1)		did not observe any discernible cytotoxicity even at the maximum concentrations (10 μM)
